# Assay results as given in US20250145633A1, “SUBSTITUTED FURANOPYRIMIDINE COMPOUNDS AS PDE1 INHIBITORS” (Dart NeuroScience, LLC, priority 2017, published 2025).
# Biological target: human PDE1B enzyme (Homo sapiens (Human), UniProt Q01064)
# Experiment: IMAP TR-FRET PDE1B enzymatic assay
# Assay type: biochemical
# Details: negative log of half-maximal molar inhibitory concentration; 200 nM FAM-cAMP; values given as bins
# How it was run: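 Full-length GST-tagged human PDE1B (250 pg/well) in IMAP BSA buffer with 10 U/ml calmodulin and 2.5 mM CaCl2; compound pre-incubated 5 min at room temperature, then 200 nM (final) FAM-cAMP for 30 min. IMAP binding reagent/Tb added, 1 h; TR-FRET 520/490 ratio read. IC50 from sigmoidal dose-response fit.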
row,Structure (SMILES),PDE1b (pIC50)
1,"Cc1oc2ncnc(NC3(C)CC3)c2c1C(=O)N1CCC(c2cc(C)n(C)n2)CC1 [Example 779, 5-[4-(1,5-Dimethyl-1H-pyrazol-3-yl)piperidine-1-carbonyl]-6-methyl-N-(1-methylcyclopropyl)furo[2,3-d]pyrimidin-4-amine]",>8
2,"Cc1oc2ncnc(NC3(C)CC3)c2c1C(=O)NC1(c2ccc(F)cc2)CC1 [Example 69, N-[1-(4-Fluorophenyl)cyclopropyl]-6-methyl-4-[(1-methylcyclopropyl)amino]furo[2,3-d]pyrimidine-5-carboxamide]",>8
3,"Cc1oc2ncnc(NC3(C)CC3)c2c1C(=O)N1CCc2c(cccc2OCF)C1 [Example 764, 5-[5-(Fluoromethoxy)-1,2,3,4-tetrahydroisoquinoline-2-carbonyl]-6-methyl-N-(1-methylcyclopropyl)furo[2,3-d]pyrimidin-4-amine]",>8
4,"Cc1oc2ncnc(NC3(C)CC3)c2c1C(=O)N1CCc2c(O)cccc2C1 [Example 329, 2-{6-Methyl-4-[(1-methylcyclopropyl)amino]furo[2,3-d]pyrimidine-5-carbonyl}-1,2,3,4-tetrahydroisoquinolin-5-ol]",>8
5,"Cc1oc2ncnc(NC3(C)CC3)c2c1C(=O)NCc1ccc(OC(F)F)cc1 [Example 267, N-{[4-(Difluoromethoxy)phenyl]methyl}-6-methyl-4-[(1-methylcyclopropyl)amino]furo[2,3-d]pyrimidine-5-carboxamide]",>8
6,"Cc1oc2ncnc(NC3(C)CC3)c2c1C(=O)N(CCCO)Cc1ccc(F)cc1 [Example 574, N-[(4-Fluorophenyl)methyl]-N-(3-hydroxypropyl)-6-methyl-4-[(1-methylcyclopropyl)amino]furo[2,3-d]pyrimidine-5-carboxamide]",>8
7,"Cc1oc2ncnc(NC3(C)CC3)c2c1C(=O)N1CCN(c2ccccc2)CC1 [Example 1, (6-Methyl-4-((1-methylcyclopropyl)amino)furo[2,3-d]pyrimidin-5-yl)(4-phenylpiperazin-1-yl)methanone]",>8
8,"COc1cccc(C2CCN(C(=O)c3c(C)oc4ncnc(NC5(C)CC5)c34)C2)c1 (stereo not drawn) [Example 361, 5-[3-(3-Methoxyphenyl)pyrrolidine-1-carbonyl]-6-methyl-N-(1-methylcyclopropyl)furo[2,3-d]pyrimidin-4-amine]",>8
9,"COc1ccc2oc(CNC(=O)c3c(C)oc4ncnc(NC5(C)CC5)c34)nc2c1 [Example 714, N-[(5-Methoxy-1,3-benzoxazol-2-yl)methyl]-6-methyl-4-[(1-methylcyclopropyl)amino]furo[2,3-d]pyrimidine-5-carboxamide]",>8
10,"Cc1ccc(C2CCN(C(=O)c3c(C)oc4ncnc(NC5(C)CC5)c34)CC2)cc1 [Example 384, 6-Methyl-N-(1-methylcyclopropyl)-5-[4-(4-methylphenyl)piperidine-1-carbonyl]furo[2,3-d]pyrimidin-4-amine]",>8

# Same assay, conditions: negative log of half-maximal molar inhibitory concentration; 200 nM FAM-cAMP; values given as bins; read-out: PDE1b (pIC50) (converted)
row,Structure (SMILES),IC50 [nM]
1,"Cc1oc2ncnc(NC3(C)CC3)c2c1C(=O)N1CCc2c(ncnc2NC2CC2)C1 [Example 342, 5-[4-(Cyclopropylamino)-5H,6H,7H,8H-pyrido[3,4-d]pyrimidine-7-carbonyl]-6-methyl-N-(1-methylcyclopropyl)furo[2,3-d]pyrimidin-4-amine]",10 to 100
2,"Cc1oc2ncnc(NC3(C)CC3)c2c1C(=O)NCc1nccn1C [Example 715, 6-Methyl-N-[(1-methyl-1H-imidazol-2-yl)methyl]-4-[(1-methylcyclopropyl)amino]furo[2,3-d]pyrimidine-5-carboxamide]",10 to 100
3,"Cc1oc2ncnc(NC3(C)CC3)c2c1C(=O)N1CCc2c(ncnc2N(C)C2CCOCC2)C1 [Example 793, 6-Methyl-5-{4-[methyl(oxan-4-yl)amino]-5H,6H,7H,8H-pyrido[3,4-d]pyrimidine-7-carbonyl}-N-(1-methylcyclopropyl)furo[2,3-d]pyrimidin-4-amine]",10 to 100
4,"Cc1oc2ncnc(NC3(C)CC3)c2c1C(=O)N[C@H]1C[C@H](F)C1 [Example 126, 6-Methyl-4-[(1-methylcyclopropyl)amino]-N-[(1R,3R)-3-fluorocyclobutyl]furo[2,3-d]pyrimidine-5-carboxamide]",10 to 100
5,"Cc1oc2ncnc(NC3(C)CC3)c2c1C(=O)NCc1cn2ccnc2cn1 [Example 719, N-{Imidazo[1,2-a]pyrazin-6-ylmethyl}-6-methyl-4-[(1-methylcyclopropyl)amino]furo[2,3-d]pyrimidine-5-carboxamide]",10 to 100
6,"CCc1cc(CN(C)C(=O)c2c(C)oc3ncnc(NC4(C)CC4)c23)on1 [Example 251, N-[(3-Ethyl-1,2-oxazol-5-yl)methyl]-N,6-dimethyl-4-[(1-methylcyclopropyl)amino]furo[2,3-d]pyrimidine-5-carboxamide]",10 to 100
7,"Cc1oc2ncnc(NC3(C)CC3)c2c1C(=O)NCc1noc(C(F)(F)F)n1 [Example 457, 6-Methyl-4-[(1-methylcyclopropyl)amino]-N-{[5-(trifluoromethyl)-1,2,4-oxadiazol-3-yl]methyl}furo[2,3-d]pyrimidine-5-carboxamide]",10 to 100
8,"Cc1oc2ncnc(NC3(C)CC3)c2c1C(=O)N1CCc2c(C#N)ncnc2C1 [Example 24, 7-(6-Methyl-4-((1-methylcyclopropyl)amino)furo[2,3-d]pyrimidine-5-carbonyl)-5,6,7,8-tetrahydropyrido[3,4-d]pyrimidine-4-carbonitrile]",100 to 1000
9,"COCCn1nc(C)c(NC(=O)c2c(C)oc3ncnc(NC4(C)CC4)c23)c1C [Example 420, N-[1-(2-Methoxyethyl)-3,5-dimethyl-1H-pyrazol-4-yl]-6-methyl-4-[(1-methylcyclopropyl)amino]furo[2,3-d]pyrimidine-5-carboxamide]",10 to 100
10,"Cc1oc2ncnc(NC3(C)CC3)c2c1C(=O)N1CCc2cccc(O)c2C1 [Example 331, 2-{6-Methyl-4-[(1-methylcyclopropyl)amino]furo[2,3-d]pyrimidine-5-carbonyl}-1,2,3,4-tetrahydroisoquinolin-8-ol]",10 to 100
11,"Cc1ccccc1NC(=O)c1c(C)oc2ncnc(NC3(C)CC3)c12 [Example 178, 6-Methyl-4-[(1-methylcyclopropyl)amino]-N-(2-methylphenyl)furo[2,3-d]pyrimidine-5-carboxamide]",10 to 100
12,"Cc1oc2ncnc(NC3(C)CC3)c2c1C(=O)NC(C)C(C)C (stereo not drawn) [Example 170, 6-Methyl-N-(3-methylbutan-2-yl)-4-[(1-methylcyclopropyl)amino]furo[2,3-d]pyrimidine-5-carboxamide]",10 to 100
13,"Cc1oc2ncnc(NC3(C)CC3)c2c1C(=O)N1CC(c2ccc(F)cn2)C1 [Example 31, 5-[3-(5-Fluoropyridin-2-yl)azetidine-1-carbonyl]-6-methyl-N-(1-methylcyclopropyl)furo[2,3-d]pyrimidin-4-amine]",10 to 100
14,"Cc1oc2ncnc(NC3(C)CC3)c2c1C(=O)N1CCc2c(ccnc2Cl)C1 [Example 285, 5-(5-Chloro-1,2,3,4-tetrahydro-2,6-naphthyridine-2-carbonyl)-6-methyl-N-(1-methylcyclopropyl)furo[2,3-d]pyrimidin-4-amine]",10 to 100
15,"Cc1oc2ncnc(NC3(C)CC3)c2c1C(=O)N1CCn2c(C3CC3)nc(Cl)c2C1 [Example 694, 5-{1-Chloro-3-cyclopropyl-5H,6H,7H,8H-imidazo[1,5-a]pyrazine-7-carbonyl}-6-methyl-N-(1-methylcyclopropyl)furo[2,3-d]pyrimidin-4-amine]",10 to 100
16,"Cc1oc2ncnc(NC3(C)CC3)c2c1C(=O)NCc1nc2ccc(F)cc2n1C [Example 725, N-[(6-Fluoro-1-methyl-1H-1,3-benzodiazol-2-yl)methyl]-6-methyl-4-[(1-methylcyclopropyl)amino]furo[2,3-d]pyrimidine-5-carboxamide]",10 to 100
17,"Cc1oc2ncnc(NC3(C)CC3)c2c1C(=O)N1CCC(c2nccn2C)C1 (stereo not drawn) [Example 320, 6-Methyl-5-[3-(1-methyl-1H-imidazol-2-yl)pyrrolidine-1-carbonyl]-N-(1-methylcyclopropyl)furo[2,3-d]pyrimidin-4-amine]",10 to 100
18,"Cc1oc2ncnc(NC3(C)CC3)c2c1C(=O)NC1CCN(c2ccccn2)C1 (stereo not drawn) [Example 669, 6-Methyl-4-[(1-methylcyclopropyl)amino]-N-[1-(pyridin-2-yl)pyrrolidin-3-yl]furo[2,3-d]pyrimidine-5-carboxamide]",10 to 100
19,"Cc1oc2ncnc(NC3(C)CC3)c2c1C(=O)NCc1ccc[nH]1 [Example 98, 6-Methyl-4-[(1-methylcyclopropyl)amino]-N-(1H-pyrrol-2-ylmethyl)furo[2,3-d]pyrimidine-5-carboxamide]",10 to 100
20,"Cc1oc2ncnc(NC3(C)CC3)c2c1C(=O)NC1(C)COC1 [Example 105, 6-Methyl-4-[(1-methylcyclopropyl)amino]-N-(3-methyloxetan-3-yl)furo[2,3-d]pyrimidine-5-carboxamide]",10 to 100
21,"CCc1nccc(CNC(=O)c2c(C)oc3ncnc(NC4(C)CC4)c23)n1 [Example 726, N-[(2-Ethylpyrimidin-4-yl)methyl]-6-methyl-4-[(1-methylcyclopropyl)amino]furo[2,3-d]pyrimidine-5-carboxamide]",10 to 100
22,"Cc1oc2ncnc(NC3(C)CC3)c2c1C(=O)Nc1ccc(N2CCOCC2)nc1 [Example 753, 6-Methyl-4-[(1-methylcyclopropyl)amino]-N-[6-(morpholin-4-yl)pyridin-3-yl]furo[2,3-d]pyrimidine-5-carboxamide]",100 to 1000
23,"Cc1oc2ncnc(NC3(C)CC3)c2c1C(=O)N1CCc2ccccc2C1 [Example 233, 6-Methyl-N-(1-methylcyclopropyl)-5-(1,2,3,4-tetrahydroisoquinoline-2-carbonyl)furo[2,3-d]pyrimidin-4-amine]",10 to 100
